Our source for the IC50 and rate of metabolism values is patent US20060142319A1, “Pyridyl-substituted spiro-hydantoin crystalline forms and process” (priority 2004, published 2006).

In one data set the target is CYP 2C19 (Homo sapiens, UniProt P33261). Kind of data set: CYP assay. It counts as in vitro ADME. Conditions: CYP assay per Drug Metabolism and Disposition 28, 1440-1448 (2000). The protocol:
The CYP assay was conducted according to the procedure in Drug Metabolism and Disposition, 28, 1440-1448 (2000).

Data set [1] in a line: Microsomal liver assay (rate of oxidative metabolism). It is filed as in vitro ADME. Conditions: human liver microsomes; 3 μM test compound, 1 mg/mL microsomal proteins, NADPH, 37° C. The protocol:
Mouse and rat liver microsomes were purchased from XenoTech LLC (Kansas City, Kans.), and human liver microsomes were obtained from BD Gentest (Woburn, Mass.).
The oxidative metabolism in liver microsomes of various species was studied under the following condition: 3 μM test compound (organic solvent content <0.1%), 1 mg/mL microsomal proteins, 1 mM β-nicotinamide adenine dinucleotide phosphase (β-NADPH), 100 mM phosphate buffer (pH 7.4), and 6.7 mM magnesium chloride. The reaction (n=3) was initiated by the addition of NADPH followed by incubation at 37° C. for 20 min. Aliquots of samples (0.1 mL) were taken at 0, 5, and 20 min, and the reaction was quenched by the addition of three volumes of acetonitrile. Samples were stored at −20° C. until analysis.
The rate of oxidation in liver microsomes was determined from the following equation: rate (nmol/min/mg protein)=k*C0/Cprotein, where k (1/min) is the turnover rate constant estimated from non-linear regression of the percent compound remaining (y)-time (t) curve using the equation y=y0*exp(−k*t); C0 is initial drug concentration (μM), and Cprotein is microsomal protein concentration (mg/mL).
Rates of metabolism are “binned” (classified) as follows: […]
(Microsomes from liver hold many membrane-bound enzymes, among them those of drug oxidation.)

Chain of CYP 2C19 (P33261 whole entry): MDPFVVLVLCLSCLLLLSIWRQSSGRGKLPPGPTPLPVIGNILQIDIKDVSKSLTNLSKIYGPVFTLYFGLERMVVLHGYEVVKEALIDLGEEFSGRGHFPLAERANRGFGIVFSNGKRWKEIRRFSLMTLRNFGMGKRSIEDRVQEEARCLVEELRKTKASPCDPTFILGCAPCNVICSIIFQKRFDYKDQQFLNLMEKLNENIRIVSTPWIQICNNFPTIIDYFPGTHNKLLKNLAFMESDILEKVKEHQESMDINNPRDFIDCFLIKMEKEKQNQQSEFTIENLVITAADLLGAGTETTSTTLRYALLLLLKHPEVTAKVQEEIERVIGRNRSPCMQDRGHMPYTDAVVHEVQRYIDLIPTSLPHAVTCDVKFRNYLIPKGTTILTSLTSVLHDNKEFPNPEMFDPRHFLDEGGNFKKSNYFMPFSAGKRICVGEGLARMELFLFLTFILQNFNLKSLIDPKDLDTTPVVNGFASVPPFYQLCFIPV

The IC50 is the concentration that inhibits the measured activity by half. Lower therefore signals higher potency. On CYP 2C19, `CN1C(=O)N(c2cc(Cl)cc(Cl)c2)C(=O)[C@]12CN(c1ccccn1)C[C@H]2c1ccc(C#N)cc1` (relative stereo) [4-[(5S*,9R*)-3-(3,5-dichlorophenyl)-1-methyl-2,4-dioxo-7-pyridin-2-yl-1,3,7-triazaspiro[4.4]non-9-yl]-benzonitrile] gave an IC50 of 0.11 µM. Further, the rate of metabolism in data set [1] is on record as 0.2 nmol/min/mg.

As for `CN1C(=O)N(c2cc(Cl)cc(Cl)c2)C(=O)[C@]12CN(c1ccc(C(=O)O)cn1)C[C@H]2c1ccc(C#N)cc1` [IId, 6-[(5S,9R)-9-(4-cyanophenyl)-3-(3,5-dichlorophenyl)-1-methyl-2,4-dioxo-1,3,7-triazaspiro[4.4]non-7-yl]nicotinic acid], the IC50 at CYP 2C19 worked out at 38.2 ± 2.22 µM. This compound also yielded a rate of metabolism in data set [1] of 0.01 ± 0.01 nmol/min/mg.
